# Assay results from patent US8470763B2, “Alpha-amino-N-substituted amides, pharmaceutical composition containing them and uses thereof” (Shanghai Institute of Materia Medica Chinese Academy of …, priority 2007, dated 2013).
# Where two headings read alike, the source gives them in different places.
# Legend:
# [1] = test system: MDA-MB-435S human breast cancer cells; assay: MTT assay, proliferation of MDA-MB-435S cells; type: cell-based; conditions: 72 h
# Description: The experiments for evaluating the antineoplasmic activities of the compounds according to the present invention were carried out, and the compounds' antineoplasmic activities in vitro was evaluated by determining the inhibitory activities thereof against the proliferation of MDA-MB-435S human breast cancer cells.
# The antineoplasmic activities were determined by using the MTT assay, which is based on the metabolic reduction of 3-(4,5-dimethylthylthiazol-2-yl)-2,5-diphenyl tetrazolium bromide (MTT). The dehydrogenases, which are related to NADP (niacinamide adenine dinucleotide phosphate, coenzyme) and present in mitochondrions of living cells, can reduce the yellow MTT to an insoluble, dark purple formazan. […] After the formazan is dissolved in DMSO, the optical density is determined on an ELISA Reader at the wavelength of 550/690 nm.
# (§1) The adhered MDA-MB-4355 cells in logarithmic growth phase, were digested by 0.05% trypsogen, counted and formulated into a cell suspension with a medium. After counted, the suspension was inoculated on a 96-well plate with 3000 cells and 100 μl medium per well. The inoculated 96-well plate was placed overnight in an incubator at 37 with 5% CO2 to allow the cells to adhere to the wall. On the next day, the administration of the drugs started. Before the administration, into some of the control wells, each was added 20 μl of the MTT solution (5 mg/ml) without removing the medium therein. After incubated for 3 h, the absorption at A550/690 was recorded as the initial cell concentration. For the drug wells, each was added into 100 μl of medium containing 2 μl of compound solution. For the control wells which use DMSO as background control, each was also added into 100 μl of medium containing 2 μl of DMSO. In addition, each experiment was carried out with adriamycin as the positive control. Subsequently, the 96-well plate was incubated in an incubator at 37 with 5% CO2 for 72 h. each compound was tested in triplicate wells (6 μl of compound solution was put into a sterilized eppendorf centrifuge tube, then 300 μl of medium was added and mixed well, and the mixture was distributed into 3 wells respectively), and at six concentrations which form a gradient. 3 days (72 h) later, 40 μl of MTT solution (5 mg/ml) was put into each well directly (without sucking off the medium therein), and the plate was incubated in the incubator for 3 h and then taken out. The liquid in each well was sucked off, and then 100 μl of DMSO was put into each well to dissolve the crystal completely with slight shake. The absorbance of the solution in each well was determined at 550/690 nm on an ELISA Reader as the cell density after treated with the compound. The growth inhibition of compound against breast cancer cells MDA-MB-435S was represented by the cell survival rate, and IC50 was determined from the profile of cell survival rate vs compound concentration. The calculating formula was as follows: cell survival rate=[(cells+compound)A550/690/(cells+compound vector DMSO)A550/690]×100%
# [2] = test system: lung adenocarcinoma cells A549; assay: MTT assay, A549 cells; type: cell-based; conditions: Homo sapiens, 72 h
# Description: as §1
# (§2) MDA-MB-435S: human breast cancer cells; HCT116: colon cancer cells; A549: lung adenocarcinoma cells; Hela: uterine cervix cancer cells.
# (§3) The tests were performed in the same manner as that of experimental example 1, except that for Hela cells, after counted, each well was seeded with 1000 cells and 100 μl of medium on a 96-well plate.
# [3] = test system: Hela uterine cervix cancer cells; assay: MTT assay, Hela cells; type: cell-based; conditions: Homo sapiens, 72 h, 1000 cells per well
# Description: as §1, §2, §3
# A549 (Lung Cancer) = assay: SRB assay, A549; type: cell-based; conditions: Homo sapiens, 72 h, read-out: IC50 (μM) (mean ± SD)
# Description: (§4) Experimental method: The antineoplasmic activities in vitro of the compounds were determined by SRB assay. The detailed procedure was as follows. The cells in the logarithmic growth phase were inoculated on a 96-well microculture plate with a suitable density (100 μl/well), and allowed to attach overnight, followed by addition of the compound at different concentrations to be treated for 72 h. For each concentration, the test was carried out in triplicate wells, and included control wells containing the aqueous medium of normal saline and a blank well containing all medium without cells for zeroing. After cultured overnight, the cells were treated with the compound at different concentrations for 72 h. After the treatment, the culture medium was removed, and the cells were fixed with 10% (wt/vol) trichloroacetic acid (100 μL/well) at 4° C. for 1 h. The cells were then washed with distilled water for 5 times, and died at room temperature, followed by addition of a SRB solution (4 mg/mL, dissolved in 1% glacial acetic acid) at 100 μL/well. The cells were incubated and stained at room temperature for 15 min, then washed with 1% glacial acetic acid for 5 times to remove the uncombined SRB, and died at room temperature. 100 μL of 10 mM Tris solution was added in each well, and the Optical Density (OD) were measured at a wavelength of 560 nm on a VERSMax ELISA Reader (Molecule Devices). The growth inhibition of the compound against tumor cells was calculated according to the following equation: Growth inhibition (%)=(ODcontrol−ODtreated)/ODcontrol×100%.
# (§5) IC50 (the concentration of the sample compound that is required for 50% inhibition of cell growth) was calculated by using the Logit method based on the measurement, and each test was repeated for 3 times to calculate the mean value and standard deviation.
# [4] = test system: SGC-7901 (Gastric Cancer); assay: SRB assay, SGC-7901; type: cell-based; conditions: Homo sapiens, 72 h, read-out: IC50 (μM) (mean ± SD)
# Description: as §4, §5
# HCT-116 (Colon Cancer) = assay: SRB assay, HCT-116; type: cell-based; conditions: Homo sapiens, 72 h, read-out: IC50 (μM) (mean ± SD)
# Description: as §4, §5
# HO-8910 (Ovarian Cancer) = assay: SRB assay, HO-8910; type: cell-based; conditions: 72 h, read-out: IC50 (μM) (mean ± SD)
# Description: as §4, §5
# BEL-7402 (Liver Cancer) = assay: SRB assay, BEL-7402; type: cell-based; conditions: Homo sapiens, 72 h, read-out: IC50 (μM) (mean ± SD)
# Description: as §4, §5
# SMMC-7721 (Liver Cancer) = assay: SRB assay, SMMC-7721; type: cell-based; conditions: Homo sapiens, 72 h, read-out: IC50 (μM) (mean ± SD)
# Description: as §4, §5
# Zip177 (Liver Cancer) = assay: SRB assay, Zip177; type: cell-based; conditions: 72 h, read-out: IC50 (μM) (mean ± SD)
# Description: as §4, §5
# HepG2 (Liver Cancer) = assay: SRB assay, HepG2; type: cell-based; conditions: Homo sapiens, 72 h, read-out: IC50 (μM) (mean ± SD)
# Description: as §4, §5
# 7404 (Liver Cancer) = assay: SRB assay, 7404; type: cell-based; conditions: 72 h, read-out: IC50 (μM) (mean ± SD)
# Description: as §4, §5
# [5] = test system: MDA-MB-435 (Breast Cancer); assay: SRB assay, MDA-MB-435; type: cell-based; conditions: Homo sapiens, 72 h, read-out: IC50 (μM) (mean ± SD)
# Description: as §4, §5
# [6] = test system: HPAF-II (Pancreatic Cancer); assay: SRB assay, HPAF-II; type: cell-based; conditions: Homo sapiens, 72 h, read-out: IC50 (μM) (mean ± SD)
# Description: as §4, §5
# HMEC (Others) = assay: SRB assay, HMEC; type: cell-based; conditions: Homo sapiens, 72 h, read-out: IC50 (μM) (mean ± SD)
# Description: as §4, §5
# [7] = test system: human breast cancer cells MDA-MB-435 transplanted on nude mice; conditions: mouse, in vivo
# Description: Dosage: among 3 groups, the dosages of L538 were set at 5, 10 and 20 mg/kg as the high, middle and low dosages, respectively, administrating intravenously 3 times a week; while MMC was administrated intravenously at the first day whit a dosage of 5 mg/kg.
# Animals: BALB/CA nude mice, male, 40-45 days old, body weight: 18±1 g, provided by Shanghai Institute of Materia Medica, Chinese Academy of Sciences. […] Animal number in each group: 7 in negative control group, and 4 in administration group.
# The amount of inoculated cells was 5×10^6. After the transplanted tumor was formed by inoculation, it was used after passed for 3 generations in nude mice.
# Experimental procedure: tumor tissue in productive phase was cut into nubs of about 1.5 mm^3. Under sterile conditions, the nubs were inoculated subcutaneously in right axillary fossa of the nude mice. The diameters of the transplanted tumors on nude mice were measured by a vernier caliper. When the tumors grew up to 100-200 mm^3, the animals were divided randomly into groups. Mice in experimental groups were administered intravenously every other day. […] The total administration duration was 3 weeks. For the positive control, MMC, Mice were administered intravenously once at the first day of a week, and the total administration duration was 3 weeks. Mice in control groups were administrated physiologic saline in equivalent amount. The diameter of the tumor and weight of mice were measured twice a week. The equation for calculating the TV (tumor volume) was as follows: TV=½×a×b^2, • wherein, a is length and b is width. RTV (relative tumor volume) was calculated based on the measured results, and the equation thereof was as follows: RTV=Vt/V0 • wherein, V0 is the tumor volume measured when the mice were grouped (i.e. d0), and Vt is the tumor volume at each measurement. The evaluation index for the antitumor activity was the relative tumor proliferation rateT/C (%).
# The calculation equation was as follows: T/C(%)=(TRTV/CRTV)×100, • wherein, TRTV is the RTV of therapeutic Group and CRTV is RTV of negative control group.
smiles,measurement,setting,value
CO[C@@H](C(=O)N[C@@H](C)C(=O)NCCOC(=O)C12CC3CC(CC(C3)C1)C2)[C@H](O)[C@@H](O)[C@H](O)/C=C/C(C)(C)C [Compound L538],IC50,[1]; read-out: Cell Survival Rate IC50,490 nM
same,IC50,"[1]; Homo sapiens, note: MDA-MB-435S, read-out: IC50 (MDA-MB-435)",494 ± 139 nM
same,IC50,"[1]; Homo sapiens, read-out: Cell Survival Rate IC50",430 nM
same,IC50,[2],133 ± 25 nM
same,IC50,[3],91 ± 19 nM
same,IC50,A549 (Lung Cancer),0.02 ± 0.004 µM
same,IC50,[4],3.92 ± 1.78 µM
same,IC50,HCT-116 (Colon Cancer),0.24 ± 0.1 µM
same,IC50,HO-8910 (Ovarian Cancer),> 20 µM
same,IC50,BEL-7402 (Liver Cancer),0.37 ± 0.27 µM
same,IC50,SMMC-7721 (Liver Cancer),0.58 ± 0.04 µM
same,IC50,Zip177 (Liver Cancer),0.37 ± 0.06 µM
same,IC50,HepG2 (Liver Cancer),0.45 ± 0.07 µM
same,IC50,7404 (Liver Cancer),> 20 µM
same,IC50,[5],0.09 ± 0.01 µM
same,IC50,[6],0.65 ± 0.21 µM
same,IC50,HMEC (Others),0.17 ± 0.06 µM
same,dead nude mice,[7],none of the experimental groups had dead nude mice
